# Reference: article PMC3125149, “SCYX-7158, an Orally-Active Benzoxaborole for the Treatment of Stage 2 Human African Trypanosomiasis” (PLoS Neglected Tropical Diseases, 2011)
# Read-outs that look alike come from different tables or passages of the source.
# Key:
# [1] = Pharmacokinetics in uninfected rats; assay type: in vivo, rat
# Protocol: (§1) The blood distribution, CNS disposition and pharmacokinetics of SCYX-7158 were evaluated in infected or non-infected rodents following intravenous or oral administration of compounds. Pharmacokinetics and bioavailability of SCYX-7158 were also evaluated in non-infected beagle dogs and cynomolgus monkeys. In-life phases of non-infected rodent studies were performed at Vivisource (Waltham, MA); studies in non-naïve cynomolgus monkeys were performed by SNBL USA (Everett, WA). Male CD-1 mice (∼25 g), male Sprague-Dawley rats (∼225 g), or male cynomolgus monkeys (∼3–5 kg) were administered test article by either bolus intravenous injection (IV) or oral gavage. Animals in the IV groups received a single 2 mg/kg IV dose. Animals received oral doses of test articles as either single or twice daily doses ranging from 8 mg/kg to 50 mg/kg. All doses were administered as clear colorless solutions in either 50% (v/v) PEG 400: 20% (v/v) ethanol: 30% (v/v) carboxymethylcellulose (0.5% w/v in sterile water for injection) or 2% (v/v) ethanol: 5% (w/v) dextrose in sterile water for injection. […] For pharmacokinetic analysis, blood samples were collected from mice via cardiac puncture under terminal anaesthesia. Serial blood samples were collected from rats via a vascular access port located in the lateral saphenous vein. Mice and rats were euthanized in a CO2 chamber before collection of terminal blood samples or brain tissue. Blood samples were collected into polypropylene tubes containing K2EDTA anticoagulant and stored on ice until centrifuged for the preparation of plasma. Plasma was stored at −70°C. Whole brains were collected following decapitation, blotted dry, placed into polypropylene containers and then immediately frozen at approximately −70°C. CSF was collected from rats via cisterna magna puncture, placed in sterile polypropylene tubes, and stored at approximately −70°C. […] Treated samples were gently mixed at room temperature for 10 min, and then centrifuged at approximately 3000×g for 15 min at 15°C. The supernatants were transferred to 96-well plates or HPLC vials for analysis by LC-MS/MS. Pharmacokinetic parameters were calculated from composite mean plasma or tissue data using non-compartmental (oral and intravenous routes) and bi-exponential (intravenous route) analyses in Microsoft Excel.
# [2] = Pharmacokinetics in cynomolgus monkeys; assay type: in vivo, cynomolgus monkey
# Protocol: as §1
# [3] = Pharmacokinetics in uninfected mice; assay type: in vivo, mouse
# Protocol: as §1
# [4] = system: T. b. brucei TREU 667; conditions: cited from earlier work
# [5] = mouse, in vivo, po; cited from earlier work
# [6] = system: T. b. brucei 427; assay: In vitro compound sensitivity assay (resazurin viability); assay type: cell-based; conditions: T. b. brucei S427; at 10 µM
# Description: The bloodstream-form T. b. brucei 427 strain was obtained from Dr. K. Stuart (Seattle Biomedical Research Institute, Seattle, WA) and was used for routine assessment of compound sensitivity in vitro. Additional strains used in vitro include T. b. rhodesiense STIB900, isolated in 1992 from a patient in Tanzania, and T. b. gambiense 108R, isolated from a patient in Democratic Republic of Congo in 2005. T. b. brucei EATRO 110 was a generous gift from the late William Trager of the Rockefeller University. T. b. brucei TREU 667 strains were kindly provided by F. W. Jennings at the University of Glasgow. Both T. b. brucei EATRO 110 and TREU 667 were cultured according to previously described conditions and used for in vivo studies.[18], [19]
# T. b. brucei was cultured in complete HMI-9 medium,[20] which contains 10% fetal bovine serum (FBS) (Invitrogen, Carlsbad, CA), 10% Serum Plus medium (SAFC Biosciences, Lenexa, KS), and 100 units/mL penicillin and 0.1 mg/mL streptomycin. The trypanosomes were propagated in T-25 vented cap flasks (Corning Inc., Lowell, MA) at 37°C and 5% CO2 with humidity. To ensure log growth phase, trypanosomes were sub-cultured at appropriate dilutions (typically 1∶100) every 2–3 days in fresh HMI-9 medium. T. b. rhodesiense parasites were grown in MEM medium with Earle's salts supplemented with 15% horse serum. For T. b. gambiense, the MEM medium was supplemented with 5% heat-inactivated fetal calf serum (FCS) and 15% human serum.[21] L929 mouse fibroblast cells (ATCC CCL1, American Type Culture Collection, Rockville, MD) were used to determine parasite versus mammalian cell selectivity. Cells were cultured in Dulbecco's Modified Eagle Medium (DMEM), supplemented with 10% FBS, L-glutamine and 100 units/mL penicillin and 0.1 mg/mL streptomycin. MDCKII-hMDR1 cells were generously provided by P. Borst at the Netherlands Kancer Institute. Cells were cultured in DMEM with Glutamax, 10% (v/v) FBS, and 100 units/mL penicillin and 0.1 mg/mL streptomycin. Cell monolayers were fed with cell culture media 24 h after seeding and used for permeability studies 3 days later.
# (§2) Compounds to be tested were serially diluted in DMSO and added to 96-well plates to give final concentrations ranging from 5 to 0.01 µg/mL. T. b. brucei parasites in the log phase of growth were diluted in HMI-9 media and added to each well for a final concentration of 1×10^4 parasites per well. For the sensitivity assays using T. b. rhodesiense and T. b. gambiense, pararasites were cultured in MEM supplemented with Baltz components (8), diluted in the aforementioned culture media, and added to each well at a density of 1×10^3 cells/well. The final concentration of DMSO was 0.5% and the total volume was 100 µL/well. After a 72 h incubation, resazurin (Sigma-Aldrich, St. Louis, MO) was added to each well [20 µL of 25 mg/100 mL stock in phosphate buffered saline (PBS)] and incubated for an additional 4–6 h.[22] To assess cell viability, fluorescence was quantified using an EnVision Multilabel Plate Reader (Perkin Elmer, Waltham, MA) at an excitation wavelength of 530 nm and emission of 590 nm. Triplicate data points were averaged to generate sigmoidal dose-response curves and determine IC50 values using XLfit curve fitting software from IDBS (Guilford, UK). The IC50 is defined as the amount of compound required to decrease parasite or cell viability by 50% compared to those grown in the absence of the test compound. […]
# [7] = Pharmacokinetics in uninfected mice; assay type: in vivo, mouse; conditions: male, CD-1, mouse; oral dose of 56 mg/kg SCYX-7158, plasma
# [8] = target: T1, CYP2D6 (Homo sapiens, UniProt P10635); assay: P450-Glo cytochrome P450 inhibition; assay type: biochemical; conditions: human recombinant CYP2D6
# T1 construct: purchased Promega Inc., Madison, WI
# T1 sequence (P10635 whole entry): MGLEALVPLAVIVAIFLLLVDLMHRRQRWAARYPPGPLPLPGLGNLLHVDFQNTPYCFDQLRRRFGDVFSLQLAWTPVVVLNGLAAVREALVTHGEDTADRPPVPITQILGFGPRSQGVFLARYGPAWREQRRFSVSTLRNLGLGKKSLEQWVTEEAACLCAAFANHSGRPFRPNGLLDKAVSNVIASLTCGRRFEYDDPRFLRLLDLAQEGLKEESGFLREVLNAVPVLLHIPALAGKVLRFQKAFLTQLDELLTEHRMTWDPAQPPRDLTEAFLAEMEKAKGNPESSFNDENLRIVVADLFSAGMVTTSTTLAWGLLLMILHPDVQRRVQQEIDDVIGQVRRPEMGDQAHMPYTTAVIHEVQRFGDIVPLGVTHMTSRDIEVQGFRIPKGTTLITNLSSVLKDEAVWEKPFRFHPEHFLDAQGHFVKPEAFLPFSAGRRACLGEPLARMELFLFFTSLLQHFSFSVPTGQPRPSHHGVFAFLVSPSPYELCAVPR
# Protocol: (§3) The potential for compound to exert drug-drug interactions that are mediated through inhibition of cytochrome P450 activities was assessed using P450-Glo assay kits (Promega Inc., Madison, WI). Assays for human cytochrome P450 isoforms 3A4, 1A2, 2C9, 2C19, and 2D6 were performed in triplicate according to the manufacturer's instructions over the concentration range 1–100 µM (n = 6 levels). Briefly, SCYX-7158 was added to membrane preparations containing human recombinant CYP450 enzymes together with luminogenic substrates specific to each isoform. Specific CYP450 inhibitors were included as positive controls (ketoconazole, CYP3A4; alpha-napthoflavone, 1A2; sulfaphenazole, CYP2C9; troglitazone, 2C19, and quinidine, CYP2D6). Reactions were initiated by addition of NADPH-regenerating solution and were allowed to incubate for an additional 15–30 min (isoform dependent). Luciferin detection reagent, containing the luciferin-labeled probe substrate, was then added. Luminescence was recorded on an EnVision Multilabel Plate Reader. Calculation of IC50 concentrations for each enzyme was determined using GraphPad Prism (V5.01).
# [9] = target: T2, CYP3A4 (Homo sapiens, UniProt P08684); assay: P450-Glo cytochrome P450 inhibition; assay type: biochemical; conditions: human recombinant CYP3A4
# T2 construct: purchased Promega Inc., Madison, WI
# T2 sequence (P08684 whole entry): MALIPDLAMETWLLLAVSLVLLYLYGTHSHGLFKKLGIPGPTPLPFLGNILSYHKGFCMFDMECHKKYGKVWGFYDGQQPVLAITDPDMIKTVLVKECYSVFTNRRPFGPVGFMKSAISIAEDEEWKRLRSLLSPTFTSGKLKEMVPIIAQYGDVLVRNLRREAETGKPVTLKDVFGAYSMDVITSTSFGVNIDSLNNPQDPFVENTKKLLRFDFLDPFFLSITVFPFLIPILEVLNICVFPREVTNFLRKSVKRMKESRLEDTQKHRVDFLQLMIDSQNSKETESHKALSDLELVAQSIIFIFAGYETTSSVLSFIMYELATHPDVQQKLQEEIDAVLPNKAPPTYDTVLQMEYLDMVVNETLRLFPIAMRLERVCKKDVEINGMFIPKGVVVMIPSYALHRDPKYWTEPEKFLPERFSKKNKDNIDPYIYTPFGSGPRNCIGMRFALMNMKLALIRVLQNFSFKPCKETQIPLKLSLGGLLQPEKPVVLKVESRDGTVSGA
# Protocol: as §3
# [10] = target: T3, CYP1A2 (Homo sapiens, UniProt P05177); assay: P450-Glo cytochrome P450 inhibition; assay type: biochemical; conditions: human recombinant CYP1A2
# T3 construct: purchased Promega Inc., Madison, WI
# T3 sequence (P05177 whole entry): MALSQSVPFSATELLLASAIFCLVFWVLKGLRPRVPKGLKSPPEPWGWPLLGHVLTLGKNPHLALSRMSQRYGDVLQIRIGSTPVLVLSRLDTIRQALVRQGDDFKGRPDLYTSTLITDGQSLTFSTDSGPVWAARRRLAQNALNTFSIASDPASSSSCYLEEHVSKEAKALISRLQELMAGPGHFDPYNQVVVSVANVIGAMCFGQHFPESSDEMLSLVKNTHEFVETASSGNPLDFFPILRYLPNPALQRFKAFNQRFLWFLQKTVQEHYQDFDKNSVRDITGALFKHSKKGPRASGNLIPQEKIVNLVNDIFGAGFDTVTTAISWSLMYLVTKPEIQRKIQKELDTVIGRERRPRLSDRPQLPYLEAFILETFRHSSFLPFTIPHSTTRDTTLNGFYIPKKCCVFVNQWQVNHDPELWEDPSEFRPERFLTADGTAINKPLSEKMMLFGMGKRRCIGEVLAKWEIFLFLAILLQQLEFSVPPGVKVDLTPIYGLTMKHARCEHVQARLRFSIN
# Protocol: as §3
# [11] = target: T4, CYP2C19 (Homo sapiens, UniProt P33261); assay: P450-Glo cytochrome P450 inhibition; assay type: biochemical; conditions: human recombinant CYP2C19
# T4 construct: purchased Promega Inc., Madison, WI
# T4 sequence (P33261 whole entry): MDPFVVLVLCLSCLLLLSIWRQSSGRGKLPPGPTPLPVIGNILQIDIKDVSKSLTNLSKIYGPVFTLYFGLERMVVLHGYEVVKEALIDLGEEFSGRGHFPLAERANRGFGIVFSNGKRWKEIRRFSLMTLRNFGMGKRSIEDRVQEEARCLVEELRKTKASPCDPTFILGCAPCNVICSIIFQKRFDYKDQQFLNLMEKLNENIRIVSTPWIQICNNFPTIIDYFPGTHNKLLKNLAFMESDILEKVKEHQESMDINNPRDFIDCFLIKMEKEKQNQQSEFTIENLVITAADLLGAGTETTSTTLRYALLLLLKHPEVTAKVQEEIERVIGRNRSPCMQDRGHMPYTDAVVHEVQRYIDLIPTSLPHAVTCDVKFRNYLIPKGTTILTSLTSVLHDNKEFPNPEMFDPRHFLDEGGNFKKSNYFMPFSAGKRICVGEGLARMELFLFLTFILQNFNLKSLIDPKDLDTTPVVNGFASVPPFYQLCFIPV
# Protocol: as §3
# [12] = target: T5, CYP2C9 (Homo sapiens, UniProt P11712); assay: P450-Glo cytochrome P450 inhibition; assay type: biochemical; conditions: human recombinant CYP2C9
# T5 construct: purchased Promega Inc., Madison, WI
# T5 sequence (P11712 whole entry): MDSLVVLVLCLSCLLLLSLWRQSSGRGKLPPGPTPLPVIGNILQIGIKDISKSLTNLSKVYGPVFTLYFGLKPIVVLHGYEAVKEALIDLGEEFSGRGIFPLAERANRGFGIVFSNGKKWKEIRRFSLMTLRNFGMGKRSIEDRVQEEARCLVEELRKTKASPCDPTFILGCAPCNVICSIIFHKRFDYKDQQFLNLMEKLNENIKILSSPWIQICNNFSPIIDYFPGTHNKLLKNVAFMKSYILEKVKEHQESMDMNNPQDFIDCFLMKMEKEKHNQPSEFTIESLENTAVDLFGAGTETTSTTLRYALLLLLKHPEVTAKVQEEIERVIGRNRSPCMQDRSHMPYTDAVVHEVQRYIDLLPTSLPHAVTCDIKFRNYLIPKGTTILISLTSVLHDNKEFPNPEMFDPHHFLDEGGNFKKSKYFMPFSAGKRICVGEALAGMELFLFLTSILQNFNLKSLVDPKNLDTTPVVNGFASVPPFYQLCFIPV
# Protocol: as §3
# [13] = system: GVR35 stage 2 HAT model; conditions: ref R. Brun, personal communication, cited from earlier work
# [14] = system: T. b. brucei; assay: Effect of serum on trypanocidal activity; assay type: cell-based; conditions: 25% mouse serum or 50% bovine serum
# Protocol: as §2
compound,measurement,setting,value
OB(O)O [boric acid],estimated maximum concentration of boric acid,"[1]; not measured, rats, 10 mg/kg oral SCYX-7158",0.09 µg/mL
same,estimated maximum concentration of boric acid (borate),"[2]; not measured, equimolar to SCYX-3109, 10 mg/kg NG SCYX-7158",≤ 0.02 µg/mL
same,estimated maximum concentration of boric acid,"[3]; not measured, mice, 56 mg/kg oral SCYX-7158",0.05 µg/mL
"O=C(Nc1ccc2c(c1)B(O)OC2)c1ccc(F)cc1C(F)(F)F [SCYX-6759, 4-fluoro-N-(1-hydroxy-1,3-dihydrobenzo[c][1], [2]oxaborol-6-yl)-2-trifluoromethylbenzamide]",efficacy in stage 2 mouse model,[4]; 50 mg/kg twice-daily intraperitoneal (100 mg/kg/day) for 14 days,fully efficacious
same,efficacy in stage 2 mouse model,[4]; 50 mg/kg twice-daily oral for 7 days,only partial efficacy
same,efficacy in stage 2 mouse model,[4]; lower doses or once-daily paradigm,not active
same,time post-dose at which brain concentrations fell below the MIC,[5],approximately 12 h
CC(C)(O)c1ccc(NC(=O)c2ccc(F)cc2C(F)(F)F)cc1O [SCYX-3109],Cmax,"[1]; male, Sprague-Dawley, rat, oral dose of 10 mg/kg SCYX-7158, plasma, read-out: Cmax",500 ng/mL
same,metabolite plasma concentration as % of the SCYX-7158 concentration,"[1]; oral dose of 10 mg/kg SCYX-7158, each time point",3-5%
same,metabolite plasma concentration as % of the SCYX-7158 concentration,"[2]; 10 mg/kg NG group, all time points",approximately 1%
same,AUC(0-inf),"[2]; male, cynomolgus monkey, oral, 10 mg/kg SCYX-7158 NG, plasma",6400 ng·h/mL
same,Cmax,"[2]; male, cynomolgus monkey, oral, 10 mg/kg SCYX-7158 nasogastric (NG), plasma",140 ng/mL
same,inhibition of parasite growth,[6],inactive
same,Cmax,[7],270 ng/mL
same,IC50,[8],> 100 µM
same,IC50,[9],7.5 µM
same,IC50,[10],> 100 µM
same,IC50,[11],> 100 µM
same,IC50,[12],> 100 µM
same,metabolite plasma concentration as % of the SCYX-7158 concentration,"[3]; oral dose of 56 mg/kg SCYX-7158, all time points",approximately 1%
Nc1nc(N)nc(Nc2ccc([As]3SCC(CO)S3)cc2)n1 (centres unmarked) [melarsoprol],toxicity to mice,[13]; 20 mg/kg QD x 5 days,toxic
same,dose needed to effect cure,[13]; QD × 5 days,10 to 15 mg/kg
"Cc1ccc(C(=O)Nc2ccc(S(=O)(=O)O)c3cc(S(=O)(=O)O)cc(S(=O)(=O)O)c23)cc1NC(=O)c1cccc(NC(=O)Nc2cccc(C(=O)Nc3cc(C(=O)Nc4ccc(S(=O)(=O)O)c5cc(S(=O)(=O)O)cc(S(=O)(=O)O)c45)ccc3C)c2)c1 [suramin, reference compound]",attenuation of in vitro IC50,[14],greater than 25 fold
"N=C(N)c1ccc(/N=N/Nc2ccc(C(=N)N)cc2)cc1 [berenil, diminazene, reference compound]",outcome in stage 2 model,[4]; single 10 mg/kg i.p. on day 4 after infection (positive control),cured
same,outcome in stage 2 model,[4]; single 10 mg/kg i.p. on day 21 after infection (negative control),do not sustain cures
same,time of re-infection of the hemolymphatic system (recrudescence),[4]; treated 21 days after infection,35–42 days after infection
